Measurements taken from US5112809A, “CRF analogs” (The Salk Institute for Biological Studies, priority 1990, dated 1992).

Test system: cultured rat pituitary cells
Experiment: secretion of ACTH and β-endorphin by cultured rat pituitary cells in vitro
Assay type: cell-based
Settings: read-out: concentration at which half-maximal responses are observed (stimulation of secretion of ACTH and β-endorphin)
Procedure: The synthetic peptides from Example I and synthetic oCRF are examined for their effects on the secretion of ACTH and β-endorphin in vitro and also in vivo. The potency of synthetic oCRF to stimulate the secretion of ACTH and β-endorphin by cultured rat pituitary cells is measured using the procedure as generally set forth in Endocrinology, 91, 562 (1972). Half-maximal responses are observed at concentrations of the two peptides which are less than the synthetic oCRF concentration of about 250 picomolar which is needed to achieve such a response. In vivo testing using the general procedure set forth in C.

oCRF: ovine corticotropin releasing factor, 41-residue peptide, formula disclosed in U.S. Pat. No. 4,415,558
EC50: ~0.25 nM
